Drawing on US10322995B2, “Substituted cyano cycloalkyl penta-2,4-dienes, cyano cycloalkyl pent-2-en-4-ynes, cyano heterocyclyl penta-2,4-dienes and cyano heterocyclyl pent-2-en-4-ynes as active substances against abiotic plant stress” (BAYER CROPSCIENCE AKTIENGESELLSCHAFT, priority 2014, dated 2019), this text covers ABI1 inhibition and inhibition for 9 molecules.

The target in the test is T1, phosphatase ABI1 via the co-regulator RCAR11/PYR1 (Arabidopsis thaliana, UniProt O49686+P49597).
T1 sequence (O49686 1-191): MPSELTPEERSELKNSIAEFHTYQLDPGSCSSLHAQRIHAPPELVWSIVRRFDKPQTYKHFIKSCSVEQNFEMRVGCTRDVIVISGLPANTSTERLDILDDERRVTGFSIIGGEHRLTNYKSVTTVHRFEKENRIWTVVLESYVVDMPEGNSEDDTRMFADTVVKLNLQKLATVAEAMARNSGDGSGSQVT
T1 sequence (P49597 1-434): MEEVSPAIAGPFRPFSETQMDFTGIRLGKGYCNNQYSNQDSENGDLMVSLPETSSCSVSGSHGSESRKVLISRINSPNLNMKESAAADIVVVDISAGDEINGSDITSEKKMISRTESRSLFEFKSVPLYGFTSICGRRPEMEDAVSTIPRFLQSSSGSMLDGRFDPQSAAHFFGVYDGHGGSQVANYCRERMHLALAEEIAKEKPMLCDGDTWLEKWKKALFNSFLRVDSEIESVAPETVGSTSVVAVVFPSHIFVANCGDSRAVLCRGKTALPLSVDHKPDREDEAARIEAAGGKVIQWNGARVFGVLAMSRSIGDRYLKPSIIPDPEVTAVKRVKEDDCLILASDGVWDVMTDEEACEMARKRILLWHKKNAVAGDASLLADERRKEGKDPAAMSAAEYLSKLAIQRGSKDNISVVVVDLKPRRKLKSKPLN
Kind of test: In vitro assay: inhibition of the phosphatase ABI1 via the co-regulator RCAR11/PYR1, MUP dephosphorylation, fluorescence. Also on record: inhibition: dose or concentration left out as unconfirmed. The following applies: MUP dephosphorylation, fluorescence 460 nm; for ABI1 inhibition: concentration of 5 mM of the substance in a solution of DMSO and water. The class given is biochemical. Summed up: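 ABI1 (0.15 μg/well) with RCAR11 (0.30 μg/well) in Tris-HCl pH 8, NaCl, MnCl2, DTT and Tween20, with MUP as substrate; 20 min at 35 °C, fluorescence at ex 340/em 460 nm. Compounds were in DMSO/water, esterase-pretreated if needed, with DMSO 0.5% and ABA 5 μM as controls. Inhibition was binned into ≥90, 70–90, 50–70 and 30–50% classes.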

As for `CCC(C=CC(O)(c1ccccc1)C1(C#N)CC1)=CC(=O)O` (racemic) [I.2-201], the ABI1 inhibition entry is recorded as “++++ (inhibition≥90%)”.
On to `COC(=O)/C=C(/C)C#CC(O)(C(C)C)C1(C#N)CC1` (stereo not drawn) [I.1-135], for which the ABI1 inhibition entry is “++++ (inhibition≥90%)”.
The term inhibition denotes how much of the control response was suppressed. Take `CCOC(=O)/C=C(\C#CC(O)(C(C)C)C1(C#N)CC1)C1CC1` (stereo not drawn) [I.1-124, Ethyl (2Z)-6-(1-cyanocyclopropyl)-3-cyclopropyl-6-hydroxy-7-methyloct-2-en-4-ynoate]: the inhibition (read-out: ABI1 inhibition) is over 90%.
As for `CCCOC(=O)/C=C(\C#CC(O)(C(C)C)C1(C#N)CC1)CC` (stereo not drawn) [I.1-605], the ABI1 inhibition result is “++++ (inhibition≥90%)”.
On the same count and under the same terms, in the case of `CCOC(=O)/C=C(/C)C#CC(O)(C(C)C)C1(C#N)CC1` (stereo not drawn) [I.1-136] it was “+++ (90%>inhibition≥70%)”.
On the same count and under the same terms, then `CC/C(C#CC(O)(C1CCC1)C1(C#N)CC1)=C/C(=O)OC` (stereo not drawn) [I.1-648], with “++++ (inhibition≥90%)”; and `CC/C(C#CC(O)(c1ccccc1)C1(C#N)CC1)=C/C(=O)OC` (stereo not drawn) [I.1-202], with “++++ (inhibition≥90%)”.
The same measure, in the same setting: in the case of `CCCOC(=O)/C=C(\C#CC(O)(c1ccccc1)C1(C#N)CC1)CC` (stereo not drawn) [I.1-609] it was “++++ (inhibition≥90%)”; in that of `CCOC(=O)/C=C(\C#CC(O)(C(C)C)C1(C#N)CC1)CC` (stereo not drawn) [I.1-103], “++++ (inhibition≥90%)”.
